The record followed here is patent US20160281125A1, “ANTIMICROBIAL COMPOUND SUSCEPTIBILITY TEST” (priority 2013, published 2016).

Structures are written as SMILES.

One experiment concerns K. pneumo 33495. In words: Selective lysis test, OD600 turbidity (Example 1). Format: cell-based, Klebsiella pneumoniae. The procedure:
(§1) An isolated colony from an overnight Tryptocase Soy Agar (TSA) plate of each bacterial strain was suspended in 1 ml Tryptocasc Soy Broth (TSB) in a 5 ml BD polystyrene round bottom tube. TSB cultures were incubated shaking at 37° C. overnight. Ten of the overnight culture was inoculated into lml TSB and incubated shaking at 37° C. for three hours. Two […] aliquots of each log-phase culture were then transferred to two 2 ml Eppendorf microcentrifuge tubes. One tube contained 5000 of Normal Saline (BD); the second tube contained 5000 Normal Saline with meropenem at 10 μg/ml (final concentration of meropenem of 6.67 10 μg/ml). Tubes were inverted and then incubated at 37° C. stagnant for thirty minutes. Then […] of lysis buffer (0.5% SDS in PSB) (final concentration of SDS of 0.125%) was added to each tube and the tubes were vortexed for 5 seconds. Post incubation, all tubes were spun at 10000 G for 5 minutes. Supernatant was decanted and the pellet resuspended in Normal Saline. Tubes were vortexed again. OD600 was measured using Eppendorf uvettes in a spectrophotometer. The delta between the OD600 of the normal saline control and the OD600 for the test sample exposed to meropenem in normal saline was used to determine susceptibility of the bacterial strain to meropenem.

The test system of another experiment is K. pneumo 700603. Kind of experiment: Selective lysis test, OD600 turbidity (Example 1). Format: cell-based, Klebsiella pneumoniae. The procedure: as §1
In the next experiment the test system is K. pneumo 8308. In words: Selective lysis test, OD600 turbidity (Example 1). Format: cell-based, Klebsiella pneumoniae. As to the method:
as §1

The subject of a further experiment is K. pneumo 9633. Kind of experiment: Selective lysis test, OD600 turbidity (Example 1). Format: cell-based, Klebsiella pneumoniae. As to the method: as §1
For a further experiment, the system named is K. pneumo 13882. Kind of experiment: Selective lysis test, OD600, meropenem and cefotaxime (Example 2). Format: cell-based, K. pneumoniae. As to the method: (§2) In this experiment the following strains were tested: strain K. pneumoniae 13882 (previously considered meropenem sensitive and cefotaxime sensitive); E. coli BAA-197 (ESBL) (which expresses an extended-spectrum (beta)-lactamase enzyme and was previously considered meropenem sensitive and cefotaxime resistant); K. pneumoniae BAA-1705 (KPC) (which expresses a carbapenemase enzyme and was previously considered meropenem resistant and cefotaxime resistant); and K. pneumoniae BAA-2146 (NDM1) (which expresses the metallo-beta-lactamase-1 enzyme and was previously considered meropenem resistant and cefotaxime resistant).
(§3) An isolated colony from an overnight Tryptocase Soy Agar (TSA) plate of each bacteria was suspended in 1 ml Tryptocase Soy Broth (TSB) in a 5 ml BD polystyrene round bottom tube. TSB cultures were incubated at 37° C. for 1.5 hours shaking. Three 250 μl aliquots of each stationary-phase culture were then transferred to three 2 ml Eppendorf microcentrifuge tubes. One tube contained 500 μl of Normal Saline (BD); the second tube contained 500 μl Normal Saline with meropenem at 10 μg/ml; and the third tube contained 500 μl Normal Saline with cefotaxime (abbreviated […]) at 10 μg/ml. Tubes were inverted then incubated at 37° C. stagnant for thirty minutes. Then […] of lysis buffer (0.5% SDS in PSB) was added to each tube and each tube was vortexed for 5 seconds. Post incubation, all tubes were spun at 10000 G for 5 minutes. Supernatant was decanted and the pellet resuspended in Normal Saline. Tubes were vortexed. OD600 was measured using Eppendorf uvettes in a spectrophotometer. The delta between the control and the meropenem normal saline, or the control and the cefotaxime normal saline was used to determine susceptibility.

A further experiment has as its system K. pneumo BAA-1705 (KPC). The description is as above. Format: cell-based, K. pneumoniae. As to the method:
as §2, §3

Experiment [1] concerns K. pneumo BAA-2146 (NDM1). The description is as above. Format: cell-based, K. pneumoniae. The procedure: as §2, §3
A further experiment deals with K. oxy strain 43086. In words: Selective lysis test, BacUni QuickFISH staining (Example 3). Format: cell-based, K. oxytoca. The note with it: FIG. 4; K. oxy 43086; meropenem 10 μg/ml, 30 min, SDS lysis. An excerpt:
An alternative to the spectrophotometer-based measurement of changes in turbidity for measuring cell lysis following treatment with the cell lysis conditions in Examples 1 and 2 is to stain samples using a stain that distinguishes between intact cells and lysed cells. In this example staining with BacUni QuickFISH™ was used to identify intact (i.e., non-lysed) cells. BacUN1 is a universal bacteria PNA probe that binds to an rRNA sequence present in most Gram-positive and Gram-negative bacteria. The PNA probe binds to universal rRNA in intact bacterial cells and the entire cell will appears green with fluorescent microscopy. If the bacterial cell had been lysed then the rRNA target would have been released from the bacterial cell and even of somewhat labeled it would not appear as a fluorescent bacterial cell.
An isolated colony from an overnight Tryptocase Soy Agar (TSA) plate of each bacteria was suspended in 1 ml Tryptocase Soy Broth (TSB) in a 5 ml BD polystyrene round bottom tube. TSB cultures were incubated at 37° C. overnight. Ten μl of overnight culture was inoculated into 1 ml TSB and incubated shaking at 37° C. for three hours. Two 250 μl aliquots of each log-phase culture was transferred to two 2 ml Eppendorf microcentrifuge tubes. […] The slide was viewed on fluorescence microscope using 60× oil immersion on Dual TxR/FITC. […]

In experiment [2] the test system is strains previously considered susceptible to meropenem. In words: Selective lysis OD600 test, summary over the strains of Table 1. Format: cell-based, Enterobacteriaceae. The note with it: 13 of 14 strains of Table 1. The procedure:
as §1
Species abbreviations: sp. […]

[3] abbreviates: OD600 vs control without meropenem.
[4] abbreviates: meropenem 10 μg/ml, 30 min, SDS lysis buffer + vortex.

As for `C[C@@H](O)[C@H]1C(=O)N2C(C(=O)O)=C(S[C@@H]3CN[C@H](C(=O)N(C)C)C3)[C@H](C)[C@H]12` [meropenem], the “R or S” value with K. pneumo 33495, with K. pneumo 700603, in the experiment on K. pneumo 8308 and in the experiment on K. pneumo 9633 was “S (a percentage change of greater than about 85% indicates a strain is susceptible)” throughout. Further, the “% Change” value stood at 95% with K. pneumo 33495 (setting [3]), 94% in the experiment with K. pneumo 700603 (setting [3]), 98% in the experiment on K. pneumo 8308 (setting [3]) and 99% in the experiment on K. pneumo 9633 (setting [3]). The “Mero OD600” value with K. pneumo 33495 (setting [4]) is reported as 0.097; with K. pneumo 700603 (setting [4]) it was 0.065; in the experiment on K. pneumo 8308 (setting [4]), 0.053; in the experiment with K. pneumo 9633 (setting [4]) it was 0.015. The “% diff” value was 65.1% in the experiment on K. pneumo 13882 (K. pneumo 13882, OD600 vs control); 16.6% with K. pneumo BAA-1705 (KPC) (K. pneumo BAA-1705 (KPC), OD600 vs control); −0.3% in [1] (K. pneumo BAA-2146 (NDM1), OD600 vs control). In addition, the OD600 in the experiment with K. pneumo 13882 (K. pneumo 13882, antibiotic 10 μg/ml, 30 min, SDS lysis buffer + vortex, 1.5 h culture) was determined as 0.127; with K. pneumo BAA-1705 (KPC) (K. pneumo BAA-1705 (KPC), antibiotic 10 μg/ml, 30 min, SDS lysis buffer + vortex, 1.5 h culture) it was 0.423; in experiment [1] (K. pneumo BAA-2146 (NDM1), antibiotic 10 μg/ml, 30 min, SDS lysis buffer + vortex, 1.5 h culture), 0.301. Further, the “assay score (sensitive or resistant)” value was “sensitive” in the experiment with K. pneumo 13882 (K. pneumoniae 13882), “resistant” in the experiment on K. pneumo BAA-1705 (KPC) (K. pneumoniae BAA-1705 (KPC)) and “resistant” in [1] (K. pneumoniae BAA-2146 (NDM1)). For the same compound, the “number of BacUni QuickFISH stained cells, treated vs not treated” value in the experiment with K. oxy strain 43086 is “significant reduction in the number of stained cells”. The “decrease of OD600 turbidity vs negative control” value in [2] is reported as “at least 88%”.
